The text below walks through data of publication PMC8534003, “The Chemokine-Based Peptide, CXCL9(74-103), Inhibits Angiogenesis by Blocking Heparan Sulfate Proteoglycan-Mediated Signaling of Multiple Endothelial Growth Factors” (Cancers, 2021).

The conditions of assay [1]: reference not given at the value; read-out: KD, heparin binding; cited from earlier work. The source says:
In our present study, we wanted to explore the potential of CXCL9(74-103), a high affinity GAG-binding peptide, to interfere with angiogenesis by targeting growth factor-induced signaling cascades and associated processes. […] The obtained KD value lies within the range of the concentrations that were applied in the different in vivo and in vitro assays reported here. FGF-2-mediated proliferation, chemotaxis and sprouting in vitro was diminished by CXCL9(74-103). Also in vivo, CXCL9(74-103) treatment attenuated FGF-2-mediated neovascularization in the Matrigel plug assay. The inhibitory mechanism responsible for countering FGF-2 could be that (1) by direct interaction with FGF-2, CXCL9(74-103) can t ...

Assay [2] concerns human microvascular endothelial cells (HMVECs). The assay can be described thus: Endothelial cell proliferation assay (MTT or ATP lite). Type of assay: cell-based. Particulars: peptide 3 µM, 3 to 4 days, HMVECs, 1% FCS, mean ± SEM, n ≥ 4. As for the experimental part:
The ability of the CXCL9-derived peptides to inhibit growth factor-induced proliferation of endothelial cells was assessed. HMVECs were seeded at 5 × 10^3 cells/well in EBM™-2 medium containing 1% (v/v) FCS (proliferation medium). After settling of the cells, they were stimulated with EGF, VEGF165 (both 5 ng/mL) or FGF-2 (3 ng/mL) as a single stimulus or in combination with CXCL9(86-103) or CXCL9(74-103) at 0.3 or 3 µM in proliferation medium or left untreated. HMVECs were also treated with 0.3 or 3 µM of CXCL9(74-103) or 3 µM of CXCL9(86-103) alone to assess the effect of CXCL9-derived peptide treatment on spontaneous proliferation. After 3 to 4 days, a 3-(4,5-dimethylthiazol-2-yl)-2,5-diphenyl tetrazolium bromide (MTT) or ATP lite assay was performed. The ATP lite assay was performed according to the manufacturer’s instructions (Perkin Elmer, Waltham, MA). When MTT was used as substrate, the medium was replaced with 200 µL of MTT solution (RPMI without phenol red containing 0.4 g/L MTT) and the cells were incubated at 37 °C and 5% CO2 in the dark for 4 hours. Then, the MTT solution was discarded and the formed formazan crystals were dissolved in 200 µL acidic propanol [0.04 M HCl, 0.1% (v/v) NP-40 in isopropanol] under continuous shaking in the dark for 10 min. The optical densities were measured at 570 nm and 630 nm (reference wavelength).

In assay [3] the test system is FGF-2-induced angiogenesis, C57BL/6 mice. The assay can be described thus: In vivo angiogenesis Matrigel plug assay. Particulars: data not shown. Details: species or system mouse. As for the experimental part: Six-to-eight-week-old female C57BL/6 mice were anesthetized with a mixture of 2.5 mg/mL xylazine (V.M.D, Inovet, Arendonk, Belgium) and 37.5 mg/mL ketamine (Dechra, Northwich, UK) in PBS by i.p. injection. A vertical dorsal incision was made and an ALZET osmotic pump (model 1007D, DURECT Corporation, Cupertine, CA, USA) filled with 400 µg/100 µL CXCL9(74-103) or 100 µL PBS was subcutaneously (s.c.) implanted. The incision was closed with a surgical suture. Growth factor-reduced Matrigel (Corning Matrigel Growth Factor (GFR) Basement Membrane Matrix, Phenol Red-Free, LDEV-Free; Corning Life Sciences, Amsterdam, The Netherlands) was s.c. injected in the dorsal flank forming a firm plug (600 µL/plug). The Matrigel was either injected as such (control plugs) or supplemented with 300 µg CXCL9(74-103) and/or 180 ng FGF-2. Seven days later, the mice were sacrificed. Thirty minutes before sacrifice, the mice were i.v. injected with 200 µL (25 mg/kg) FITC-labeled 2000 kDa dextran (Sigma-Aldrich) to quantify vessel formation in the Matrigel plugs. Blood was collected through cardiac puncture into heparinized tubes containing 20 µL heparin (5.000 IE/mL, Leo Pharma, Ballerup, Denmark). The blood was centrifuged at 200 g and 4 °C for 10 min, whereafter the supernatant was centrifuged at 3000 g and 4 °C for 10 min. The collected plasma was stored away from light at 4 °C until analysis. The Matrigel plugs were removed and enzymatically and mechanically digested in 1.2 mL dispase (Corning Life Sciences) using an incubation at 37 °C for 1.5 h and the gentleMACS™ Dissociator (Miltenyi Biotec, Bergisch Gladbach, Germany). The digested Matrigel plugs were filtered through a 70 µm cell strainer, washed with 1.5 mL FACS buffer [2% (v/v) FCS + 2 mM EDTA in PBS] and centrifuged at 300 g and 4 °C for 7 min. The supernatant (SN) was centrifuged again at 300 g and 4 °C for 7 min and the SN was retained away from light at 4 °C until analysis. The pellet was resuspended in 1 mL FACS buffer, the cells were counted and used for flow cytometry. The antibodies used to identify endothelial cells were anti-mouse CD45-APC (clone 30-F11, eBioscience, Thermo Fisher Scientific), anti-mouse CD146-PE (clone ME-9F1) and anti-mouse Pan-endothelial Cell Antigen-BV711 (clone MECA-32) antibodies (both BD Biosciences). Mice experiments were approved by the Ethical Committee of KU Leuven (project number P199/2018).

The test system of the next assay is HMVEC spheroids. Nature of the assay: Spheroid sprouting assay. The format is cell-based, human. Particulars: FGF-2 10 ng/mL, peptide 3 µM, 16 hours; n = 5 experiments. As for the experimental part:
A 1:5 mixture of endothelial cells (4 × 10^4 cells/mL) and methylcellulose (Sigma-Aldrich, Saint Louis, MO, USA; 12 mg/mL in EBM™-2 basal medium) in EBM™-2 cell culture medium was prepared. Drops of 1 × 10^3 HMVECs were plated on a petri dish and allowed to form single spheroids in hanging droplets at 37 °C, 5% CO2 for 24 h. Spheroids were collected, sedimented by centrifugation and resuspended in a mixture of 24 mg/mL methylcellulose in basal EBM™-2, 1 mg/mL collagen type I (BD Biosciences, San Jose, CA, USA), 2.5 mg/mL NaHCO3 and 10 mM NaOH. The suspension was plated in a 96-well plate and the collagen was allowed to polymerize at 37 °C, 5% CO2 for 30 min. Spheroids were left untreated or stimulated with 0.3 or 3 µM of CXCL9(74-103) or 3 µM of CXCL9(86-103) for 15 min prior to addition of 10 ng/mL FGF-2 or 10 ng/mL EGF in EBM™-2 + 3% (v/v) FCS. In some experiments, HMVECs were pretreated with heparinase II (vide infra). After 16 hours, spheroid sprouting was assessed with an inverted Axiovert 200M microscope (Zeiss, Germany) through a 10× objective. The average number of sprouts was calculated and the average sprout length per spheroid was measured using Fiji software.
Sprouting experiments examining the dependency on HS binding for the inhibitory action of CXCL9(74-103) were performed as described above (vide supra). […]

A word on the Kd: it is the free concentration of one partner at which half of the binding sites on the other are occupied at equilibrium, for simple one-to-one binding. On to KKVLKVRKSQRSRQKKTT [CXCL9(86-103)], for which the Kd in assay [1] is 0.82 µM. In addition, in assay [2] (EGF 5 ng/mL), the EGF-induced proliferation result is “could not significantly alter”. For the same sequence, in assay [2] (FGF-2 3 ng/mL), the FGF-2-induced proliferation result is “significantly attenuated”. Besides, in assay [2] (VEGF165 5 ng/mL), the VEGF165-induced proliferation result was “could not significantly alter”. In addition, the “FGF-2-induced angiogenesis in the Matrigel plug assay” value in assay [3] is listed as “no anti-angiogenic activity”. For the same sequence, the “sprout outgrowth induced by FGF-2” value with HMVEC spheroids was “had no effect on sprout outgrowth induced by FGF-2”.
